Measurements taken from patent US10092537B2, “Use for PAI-1 inhibitor” (RENASCIENCE CO., LTD., priority 2013, dated 2018).

Legend:
hematopoietic stem cells [1] = test: Hematopoietic recovery after bone-marrow transplantation, compounds a, b, c (Experimental Example 5); format: in vivo, mice; conditions: compound a 100 mg/kg oral 4 days; compounds b and c 10 mg/kg oral 6 consecutive days after bone-marrow transplantation
Experimental: The procedures of Experimental Examples 4 (1) and 4 (4) were repeated using compounds b and c, instead of compound a, as a test compound.
Compound a was orally administered in an amount of 100 mg/kg for 4 consecutive days after bone-marrow transplantation. Compounds b and c were orally administered in an amount of 10 mg/kg for 6 consecutive days after bone-marrow transplantation.
Bone marrow was collected 1 and 3 weeks after bone-marrow transplantation. The total number of the whole bone-marrow cells (FIG. 9E), the proportion (%) of LSK-CD34 negative cells in the whole bone marrow (FIG. 9A), the total number of LSK-CD34 negative cells in the whole bone marrow (FIG. 9B), the proportion (%) of Lin-SLAM cells in the whole bone marrow (FIG. 9C), and the total number of Lin-SLAM cells in the whole bone marrow (FIG. 9D) were measured. The results are shown in the above-stated figures.

CML cells = test: Chronic myelogenous leukemia model mice, imatinib with compound d or compound e (Experimental Example 17); format: in vivo; conditions: imatinib 150 mg/kg/day + compound d or compound e 10 mg/kg/day via gavage, day 8 to day 14
Experimental: Group 1: placebo group (physiological saline was administered via gavage)
Group 2: imatinib group (imatinib [150 mg/kg/day] was administered via gavage)
Group 3: imatinib+compound d group (imatinib [150 mg/kg/day] and compound d [10 mg/kg/day] were administered via gavage)
Group 4: imatinib+compound e group (imatinib [150 mg/kg/day] and compound e [10 mg/kg/day] were administered via gavage)
8 days after (day 8) the day (day 0) on which CML cells were intravenously inoculated, administration of test drugs to the groups was started. The placebo group and the imatinib group were administered the respective test drugs once a day from day 8 to day 14 (7 doses in total). The imatinib+compound d group and imatinib+compound e group were administered imatinib once a day from day 8 to day 14 (7 doses in total), and also administered compound d or e once a day from day 8 to day 14 (7 doses in total).

hematopoietic stem cells [2] = test: Frequency and absolute number of hematopoietic stem cells after bone-marrow transplantation (Experimental Example 8 (1)); format: in vivo, mice; conditions: 1 and 3 weeks after bone-marrow transplantation; compared with control group
Experimental: In accordance with the procedure of Experimental Example 7 (1), bone marrow was transplanted, and tPA or compound a was administered in the same manner as in Experimental Example 7. Physiological saline was administered to a control group. 1 and 3 weeks after bone-marrow transplantation, 12 mice of each group were measured for the number of bone-marrow mononucleic cells (BM MNC), the frequency and absolute number of Lin-SLAM cells, and the frequency and absolute number of LSK-CD34 negative cells.

hematopoietic stem cells [3] = test: Cell cycle (Ki-67, BrdU) and apoptosis (Annexin V) of bone-marrow cells 1 week after bone-marrow transplantation (Experimental Example 9); format: in vivo, mice
Experimental: In accordance with Experimental Example 7 (1), bone-marrow transplantation was conducted, and after the transplantation, physiological saline (control group), tPA (tPA-administered group), or compound a (compound a-administered group) was administered.
1 week after bone-marrow transplantation, the bone marrow was collected, and Ki-67 protein, which is a cell division marker, was immunostained with anti-Ki-67-FITC antibody (BD Bioscience) to analyze the cells in the cell-division cycle by FACSCalibur.
Subsequently, the number of Ki-67 positive cells in the cells of LSK fraction was examined to confirm that the proliferation of hematopoietic stem cells is promoted by compound a.
In addition, to more accurately detect the cells that moved to the S phase, 5-bromo-2-deoxyuridine (BrdU)-FITC (BD Pharmingen) was administered to the control group, tPA group, and compound a-administered group 1 week after bone-marrow transplantation, 3 hours before the collection of bone marrow. 6 mice were used for each group.
Because BrdU is a thymine derivative, BrdU, substituting for thymine, is incorporated into genomic DNA or the like during DNA replication. BrdU more specifically reflects the S phase than Ki-67 protein.
1 week after bone-marrow transplantation, bone marrow was collected from the control group, tPA group, and compound a-administered group (6 mice for each group), and Annexin V, which appears specifically in apoptosis, was detected with anti-Annexin V antibody immunostaining.

hematopoietic stem cells [4] = test: Fibrinolytic pathway activation and bone-marrow regeneration after lethal radiation (9Gy) and bone-marrow transplantation, compound a versus recombinant tPA (Experimental Example 7)
Experimental: Within 4 hours, 1.0×10^6 bone-marrow mononucleic cells (BM MNC) were intravenously inoculated into retro-orbital plexus. Concurrently with transplantation, compound a (dosage 100 mg/kg) or recombinant tPA (dosage 100 mg/kg, Eisai Co., Ltd) were administered as a test compound via oral gavage, and the test compound was orally administered for 5 consecutive days (administered group). As a control test, instead of the test compound, physiological saline (vehicle) used for dissolving compound a was orally administered in the same manner (control group).
Blood was collected 2 and 7 days after bone-marrow transplantation, and the active PAI-1 level (ng/mL), active tissue-type plasminogen activator (active tPA), plasmin level (ng/mL), cKit ligand, and total MMP-9 (Matrix metalloprotein-9) in the plasma were measured.

hematopoietic stem cells [5] = test: Bone-marrow transplanted mice, compound c, G-CSF and G-CSF neutralizing antibody (Experimental Example 13); format: in vivo; conditions: G-CSF 150 μg/kg/day
Experimental: Bone-marrow transplanted mice were prepared in the same manner as in Experimental Example 4, and compound c, G-CSF, and G-CSF neutralizing antibody were examined for the effects. Specifically, the bone-marrow transplanted mice were divided into 5 groups as shown below (each group: n=5) and orally administered respective test drugs.
Group 1: vehicle group (physiological saline was administered via gavage) (“v group”)
Group 2: compound c group (compound c [10 mg/kg/day] was administered via gavage) (“TM group”)
Group 3: G-CSF group (G-CSF [150 μg/kg/day] was administered via gavage) (“G group”)
Group 4: vehicle+anti-G-CSF group (physiological saline+G-CSF neutralizing antibody [500 μg/kg/day] was administered via gavage) (“v+Ab group”)
Group 5: compound c+anti-G-CSF group (compound c [500 μg/kg/day]+G-CSF neutralizing antibody [500 μg/kg/day] was administered via gavage) (“TM+Ab group”)
Concurrently with bone-marrow transplantation, administration of physiological saline (vehicle) to the vehicle group via gavage was started, and the administration continued for 5 consecutive days. Concurrently with bone-marrow transplantation, administration of compound c (10 mg/kg/day) to the compound c group via gavage was started, and the administration continued for 5 consecutive days. Concurrently with bone-marrow transplantation, subcutaneous administration of G-CSF (150 μg/kg/day) to the G-CSF group was started, and the administration continued for 5 consecutive days. Concurrently with bone-marrow transplantation, gavage administration of physiological saline and subcutaneous administration of G-CSF neutralizing antibody (R&D) (500 μg/kg/day) to the vehicle+anti-G-CSF group were started, and the administration continued for 5 consecutive days. Concurrently with bone-marrow transplantation, gavage administration of compound c (10 mg/kg/day) and intraperitoneal administration of G-CSF neutralizing antibody (R&D) (500 μg/kg/day) to the compound c+anti-G-CSF group were started, and the administration continued for 5 consecutive days.
1 week after bone-marrow transplantation, plasma and bone-marrow fluids were collected from mice of each group (v group, TM group, G group, v+Ab group, and TM+Ab group), and the G-CSF concentration (pg/ml) was measured by ELISA. The following were determined in accordance with an ordinary procedure: (B) G-CSF concentration (pg/ml) in bone-marrow fluids, (C) total number of mononucleic cells (×10E7 cell) in the bone marrow, (D) proportion (%) of LSK CD34 negative cells in the bone marrow, (E) total number of LSK CD34 negative cells in the bone marrow, (F) proportion (%) of Lin-SLAM cells in the bone marrow, and (G) total number of Lin-SLAM cells in the bone marrow.

[6] = tPA group compared with control group, compound a group compared with tPA group

Molecule: O=C(Nc1cccc(-c2ccoc2)c1)C(=O)Nc1ccc(Cl)cc1C(=O)O [Example 45 (compound group 3), 5-chloro-2-{[{[3-(furan-3-yl)phenyl]amino}(oxo)acetyl]amino}benzoic acid]
- frequency of hematopoietic stem cells (hematopoietic stem cells [1]): increase
- self-renewal capacity of hematopoietic stem cells (hematopoietic stem cells [1]): enhance

Molecule: O=C(COCC(=O)Nc1ccc(Cl)cc1C(=O)O)Nc1cccc(-c2ccco2)c1 [Example 61 (compound group 3), 5-chloro-2-{[(2-{[3-(furan-2-yl)phenyl]amino}-2-oxoethoxy)acetyl]amino}benzoic acid]
- survival (CML cells): some mice survived even after day 40

Molecule: tPA: recombinant tPA (tissue-type plasminogen activator), Eisai Co., Ltd
- number of bone-marrow mononucleic cells (hematopoietic stem cells [2]): slightly larger
- proportion of cells that were induced apoptosis (Annexin V) (hematopoietic stem cells [3]; compared with control group): decrease
- cells in the S phase (BrdU incorporated into LSK cells) (hematopoietic stem cells [3]; control group 18.1%): 18.8%
- Ki-67 positive, cells classified into the LSK fraction taken as 100% (hematopoietic stem cells [3]; control group 43.3%): 50.7%
- cell count of cells at the S-G2-M phase (Ki-67) in bone-marrow mononucleic cells (hematopoietic stem cells [3]; control group 44.2%): 50.8%
- cell count of cells at the G0/G1 phase (Ki-67) in bone-marrow mononucleic cells (hematopoietic stem cells [3]; control group 55.8%): 49.2%
- level of active tPA in plasma (hematopoietic stem cells [4]; 2 days after bone-marrow transplantation, among control, tPA and compound a groups): highest level
- expression of active PAI-1 in the plasma (hematopoietic stem cells [4]; compound a or recombinant tPA 100 mg/kg, 5 consecutive days, 2 and 7 days after bone-marrow transplantation): lower than that of the control group
- survival rate on day 28 from bone-marrow transplantation (hematopoietic stem cells [4]; lethal radiation 9Gy, 100 mg/kg, 5 consecutive days, n=15, control group 20%): 50%
- platelet count in the peripheral blood (hematopoietic stem cells [4]; [6]): significantly increased
- white blood cell count in the peripheral blood (hematopoietic stem cells [4]; [6]): significantly increased

B1: G-CSF: granulocyte colony stimulating factor, administered 150 μg/kg/day (protein, UniProt P09919 31-207, looked up)
Granulocyte …: TPLGPASSLPQSFLLKCLEQVRKIQGDGAALQEKLVSECATYKLCHPEELVLLGHSLGIPWAPLSSCPSQALQLAGCLSQLHSGLFLYQGLLQALEGISPELGPTLDTLQLDVADFATTIWQQMEELGMAPALQPTQGAMPAFASAFQRRAGGVLVASHLQSFLEVSYRVLRHLAQP
- proportion and number of Lin-SLAM cells (hematopoietic stem cells [5]; single agents: TM (compound c) 10 mg/kg/day, G-CSF neutralizing antibody 500 μg/kg/day with vehicle, versus vehicle group): increased
- G-CSF concentration in the plasma and bone-marrow fluids (hematopoietic stem cells [5]; single agents: compound c 10 mg/kg/day gavage, G-CSF neutralizing antibody 500 μg/kg/day with vehicle, 1 week after transplantation, versus vehicle): significant increases
- proportion and number of LSK CD34 negative cells (hematopoietic stem cells [5]; single agents: compound c 10 mg/kg/day, G-CSF neutralizing antibody 500 μg/kg/day with vehicle, versus vehicle group): increased
- number of BM MNC (hematopoietic stem cells [5]; single agents: compound c 10 mg/kg/day, versus vehicle group): more increased
